Results: patent US20250152577A1, “Pharmaceutical Composition of Ethidium Bromide and Use in Treating Cancer” (RUIJIN HOSPITAL, SHANGHAI JIAOTONG UNIVERSITY SCHOOL OF …, priority 2022, published 2025)

Columns and labels:
[1] = test system: N2A Neuroglioma; experiment: Median lethal dosage (IC50) against tumor cell lines; format: cell-based; conditions: N2A neuroglioma tumor cells
[2] = test system: Hela Cervical cancer; experiment: as above; format: cell-based; conditions: Homo sapiens; Hela cervical cancer tumor cells
[3] = test system: MDA-231 Breast cancer; experiment: as above; format: cell-based; conditions: Homo sapiens, MDA-MB-231; MDA-231 breast cancer tumor cells
[4] = test system: PANC1 Pancreatic cancer; experiment: as above; format: cell-based; conditions: Homo sapiens, PANC-1; PANC1 pancreatic cancer tumor cells
[5] = test system: AGS Gastric cancer; experiment: as above; format: cell-based; conditions: AGS gastric cancer tumor cells
[6] = test system: Sk-Hep1 Liver cancer; experiment: as above; format: cell-based; conditions: Homo sapiens; Sk-Hep1 liver cancer tumor cells
[7] = test system: Nalm-6 Leukemia; experiment: as above; format: cell-based; conditions: Homo sapiens; Nalm-6 leukemia tumor cells
[8] = test system: MEF; experiment: Median lethal dosage (IC50) against normal cell lines; format: cell-based; conditions: Mus musculus; MEF normal cells
[9] = test system: LO2; experiment: as above; format: cell-based; conditions: Homo sapiens, L02; LO2 normal cells
[10] = test system: tumor cells; experiment: Median lethal dosage, summary over tumor cells; format: cell-based; conditions: vast majority of the tumor cells of Table 1; read-out: median lethal dosages against tumor cells
[11] = test system: normal cells; experiment: Median lethal dosage, summary over normal cells; format: cell-based; conditions: mostly, normal cells of Table 1; read-out: median lethal dosages against normal cells
[12] = test system: cancer cells; experiment: Cell death/apoptosis (PI Sub-G1 flow cytometry, MTT, Annexin V); format: cell-based; conditions: 48 h
Method: (§1) Ethidium bromide was purchased from Sigma (E7637) and treated as follows. Cancer and normal cells of various tissue origins with approximately 40% growth abundance were treated with 0.1, 0.4, and 1 μg/ml for 48 h, followed by PI staining and cycle detection by flow cytometry, statistical analysis of genomic DNA break (Sub-G1) cells, or cell viability by MTT method.
(§2) In support of this, cancer cells and normal cells from various tissues with growth abundance of about 40% were treated with 1, 2, and 5 μM for 48 h, respectively, and then observed the growth of the cells by light microscopy, followed by PI staining, detection and statistical analysis of genomic DNA break (Sub-G1) cells by flow cytometry (FIG. 3), or cell apoptosis detection by Annexin V staining method (FIG. 4).

[13] = test system: normal cells; experiment: as above; format: cell-based; conditions: 48 h
Method: as §1, §2

[14] = test system: normal cell line GES1; experiment: Mitochondrial function by Seahorse; format: cell-based; conditions: Seahorse after 6 hours
Method: To further verify the effect of ethidium bromide on mitochondrial function, various cell lines were treated with ethidium bromide and mitochondrial function was tested by using Seahorse after 6 hours.

[15] = test system: colorectal cancer cells RKO; experiment: Scratch assay of cultured cells (migration); format: cell-based, human
Excerpt: (§3) Ectopic metastasis of tumors is the biggest challenge in tumor treatment.

[16] = test system: pancreatic tumor cells Panc1; experiment: Scratch assay of cultured cells (migration); format: cell-based, human
Excerpt: as §3

[17] = test system: colorectal cancer cells RKO; experiment: Intraperitoneal injection of colorectal cancer cells RKO in nude mice, intravenous administration; format: in vivo
Excerpt: In order to further investigate whether ethidium bromide also has a better inhibitory effect on other types of tumors, we administered nude mice 2 weeks after the intraperitoneal injection of 2×10^6 colorectal cancer cells RKO, and then tested the anti-tumor effect of ethidium bromide after 4 weeks of intravenous administration, as described above.

[18] = test system: mTOR, p-NFkB, p-Erk, cleaved Caspase3; experiment: Signaling molecules in cells by Western blotting; format: cell-based
Method: We investigated the mechanism of ethidium bromide-induced apoptosis in tumor cells. First, tumor tissues treated with ethidium bromide (mice shown in FIGS. 7 and 8, treated for 4 weeks at 20 mg/Kg per day) were subjected to SDS-Loading buffer boiling lysis and tested for associated signaling pathways by Western blotting.
In order to further determine how ethidium bromide activates phosphorylation of Erk and Caspase3 cleavage and induces apoptosis, we also tested with different cell lines treated with ethidium bromide for 10 min, 30 min, 1, 2, and 6 h.

[19] = test system: mouse melanoma cells B16; experiment: Subcutaneous B16 melanoma in C57 mice, intraperitoneal administration; format: in vivo; conditions: intraperitoneal 10 mg/Kg
Method: In order to further test whether ethidium bromide still has strong anti-tumor activity against solid tumors in vivo, C57 mice were first injected subcutaneously with 2×10^6 mouse melanoma cells B16, and the administration was initiated after about 10 days when the subcutaneous tumor volume of the mice reached about 30 mm^3. We first treated the mice by traditional intraperitoneal administration (10 mg/Kg). […] So after 3 days, we switched to injecting every other day. […] Although the tumors of the mice in the dosing group were slightly smaller than those in the control group, the tumor suppression effect was not obvious (FIG. 18C).

[20] = test system: colorectal cancer cells RKO; experiment: Intraperitoneal RKO in nude mice, intraperitoneal administration; format: in vivo; conditions: intraperitoneal 10 mg/Kg once daily until day 5
Method: In addition, we also tested for nude mice utilizing intraperitoneal administration, where 2×10^6 colorectal cancer cells, RKO, were first injected intraperitoneally in nude mice, and about 3 days later, we treated the nude mice using intraperitoneal administration (10 mg/Kg).

[21] = test system: colorectal cancer cells RKO; experiment: Subcutaneous RKO solid tumor in nude mice, gavage administration; format: in vivo; conditions: gavage 20 mg/Kg
Method: We also tested the anti-tumor activity of ethidium bromide against subcutaneous solid tumors. 2×10^6 colorectal cancer cells RKO were injected subcutaneously. About 1 week later, when solid tumors grew subcutaneously in nude mice, gavage administration (20 mg/Kg) was started. The size of the tumors was measured twice a week.

[22] = test system: tumor tissue blocks (PDX) from patients with colorectal cancer; experiment: Subcutaneous patient colorectal cancer graft (PDX) in nude mice; format: in vivo
[23] = Tolerability of gavage oral administration in mice; format: in vivo; conditions: gavage oral 20 mg/Kg per day
[24] = intravenous, start 2 weeks after cell injection, 4 weeks
[25] = cell lines treated 10 min, 30 min, 1, 2, 6 h

Compound: CC[n+]1c(-c2ccccc2)c2cc(N)ccc2c2ccc(N)cc21 [ethidium bromide, Ethidium bromide]
- IC50 [1]: 15.7 µM
- IC50 [2]: 3.35 µM
- IC50 [3]: 5.4 µM
- IC50 [4]: 3.3 µM
- IC50 [5]: 0.71 µM
- IC50 [6]: 1.26 µM
- IC50 [7]: 1.17 µM
- IC50 [8]: 38.5 µM
- IC50 [9]: 50.7 µM
- IC50 [10]: < 10 µM
- IC50 [11]: > 50 µM
- induction of cell death ([12]; 0.1, 0.4, 1 μg/ml, SK-Hep1, BEL-7404, B16): can selectively induce the death of a wide range of cancer cells
- induction of cell death ([12]; 1, 2, 5 μM, SK-Hep1, 7404, AGS, RKO): can selectively induce the death of cancer cells in many different tissues
- growth inhibition / apoptosis ([13]; 0.1, 0.4, 1 μg/ml, Chang, LO2, 3T3-L1): inhibited growth at most and cannot induce apoptosis
- growth inhibition / apoptosis ([13]; 1, 2, 5 μM, LO2, chang, GES1): only inhibited growth and cannot induce apoptosis
- oxygen consumption, glycolysis level, glycolysis rate [14]: decreased only at higher concentrations such as 5 μM
- migration of tumor cells [15]: significantly inhibit the migration
- migration of tumor cells [16]: significantly inhibit the migration
- liver and spleen weights vs control ([17]; intravenous, 4 weeks): no significant difference in liver and spleen weights
- abdominal tumors vs control [17, 24]: significantly smaller than those in the control group
- mice with tumors completely cleared [17, 24]: approximately 25%
- body weight ([17]; later stage, dosing group): slight decrease in body weight
- time at which mTOR was activated [18, 25]: 10 min
- time at which p-Erk was activated [18, 25]: 1 h
- time at which p-NFkB was activated [18, 25]: 30 min
- cleaved Caspase3 and Erk phosphorylation in vitro ([18]; in vitro cells (AGS, GES1, RKO), 3 days of treatment): significant increase in the phosphorylation levels of both cleaved Caspase3 and Erk
- tumor suppression effect [19]: not obvious
- body weight ([19]; after 3 days of continuous injection): lose weight significantly
- survival of mice by the end of the experiment ([19]; daily 3 days then every other day): only 1 of the 19 mice survived
- deaths [20]: excessive deaths in nude mice
- viability of nude mice [21]: contributed to improve the viability of nude mice
- inhibitory effect on subcutaneous solid tumors ([21]; start about 1 week after cell injection): very unsatisfactory
- subcutaneous tumor mass ([22]; 20 mg/Kg in PBS injected directly into the tumor, once a day, three injections): rapidly necrotic and eventually died and fell off
- anti-tumor effect ([22]; intravenously administered): very limited
- tolerability [23]: well tolerated
